ChEMBL document CHEMBL1201862, “PubChem BioAssay data set” (2004)
Active and inactive are the calls of the source.

Key:
[1] = Shn3 3'UTR reporter inhibitors, dose response, cell-based, Clone20 osteoblasts, firefly luciferase, cherry-picked (AID 624132); type: functional;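 also: firefly luciferase luminescence from reporter carrying the Shn3 3'UTR in osteoblasts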
HEK293 = experiment: inhibitors of LMP1-driven NF-kB reporter, dose response, cell-based, HEK293, luciferase, cherry-pick (AID 588343); type: functional; conditions: Homo sapiens
[2] = reduction of Shn3 3'UTR firefly luciferase signal, dose response, Schnurri-3 inhibitor project, cell-based, Clone20 osteoblasts, cherry-pick, set 2 (AID 720490); type: functional;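 also: actives lower the luminescence signal as inhibitors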
[3] = cytotoxicity in COV434 cells, dose response, cytotoxicity control for PAX8 inhibitor project, cell-based, plate reader, dry powder, SA7 (AID 743145); type: functional
Paired box protein Pax-8 = Paired box protein Pax-8 (Homo sapiens, UniProt Q06710); experiment: inhibitors of PAX8-driven TPO luciferase reporter, dose response, RMG-I cells, cherry-pick (AID 687027); type: functional, cell-based;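 also: luciferase reporter driven by Pax8 target thyroperoxidase promoter measured by SteadyGlo luminescence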
Sequence of Paired box protein Pax-8 (Q06710 whole entry): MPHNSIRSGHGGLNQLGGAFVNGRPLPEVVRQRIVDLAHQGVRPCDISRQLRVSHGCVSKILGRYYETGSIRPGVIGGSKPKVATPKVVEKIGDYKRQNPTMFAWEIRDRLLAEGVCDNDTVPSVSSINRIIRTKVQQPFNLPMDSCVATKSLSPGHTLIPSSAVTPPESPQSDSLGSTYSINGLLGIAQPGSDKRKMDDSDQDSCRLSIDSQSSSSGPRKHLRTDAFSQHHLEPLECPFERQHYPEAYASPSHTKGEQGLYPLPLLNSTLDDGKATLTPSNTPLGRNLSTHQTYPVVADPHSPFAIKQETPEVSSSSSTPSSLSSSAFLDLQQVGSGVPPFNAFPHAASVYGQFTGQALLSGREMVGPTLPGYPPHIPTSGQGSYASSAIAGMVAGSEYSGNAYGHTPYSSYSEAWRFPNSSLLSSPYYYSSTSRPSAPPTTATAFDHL

[4] = control 3'UTR Renilla luciferase suppression, dose response, counter-screen for Shn3 inhibitor project, cell-based, Clone20-Shn3RL, cherry-picked (AID 624133); type: functional
[5] = cytotoxicity dependent on PAX8, dose response, cell-based, plate reader, dry powder (AID 743049); type: functional
[6] = cytotoxicity in COV362 ovarian cancer cells, dose response, cytotoxicity control for PAX8 inhibitor project, cell-based, plate reader, dry powder, SA12 (AID 743144); type: functional
[7] = IOSE-T80 ovarian epithelial cell cytotoxicity, dose response, cytotoxicity control for PAX8 inhibitor project, plate reader, dry powder samples (AID 743045); type: functional, cell-based
[8] = cytotoxicity in OV-90 ovarian cancer cells, dose response, PAX8 inhibitor project, cell-based, plate reader, dry powder, SA8 (AID 743149); type: functional
[9] = PAX5 activity inhibitors, dose response, selectivity assay for PAX8 inhibitor project, cell-based, plate reader, dry powder samples (AID 743047); type: functional;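 also: HEK293 cells carrying a Pax5 driven CD19 promoter luciferase reporter; potency of inhibitors that lower reporter luminescence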
[10] = MC4R antagonists, dose response, counter-screen for LGR2 antagonist project, cell-based, plate reader, cherry pick (AID 743444); type: functional;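 also: transfected HEK 293 cells stimulated with alpha-MSH peptide; potency of inhibitors of the alpha-MSH evoked signal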
[11] = LGR2 antagonists, dose response, cell-based, HEK293, CRE-luciferase reporter, cherry pick, set 2 (AID 743343); type: functional;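 also: transfected cells were stimulated with diluted bursicon conditioned medium after compound addition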
[12] = A549 cell cytotoxicity, dose response, cytotoxicity control, plate reader, cherry-pick, antagonist series (AID 743412); type: functional, cell-based
[13] = PAX2 cell-based inhibition, dose response, selectivity assay for PAX8 inhibitor project, plate reader, dry powder samples (AID 743048); type: functional;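 also: HEK293 cells carrying a WT1 promoter luciferase reporter driven by expressed Pax2; potency is for inhibition of Pax2 driven reporter signal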
[14] = target: T1, DNA repair protein RAD52 homolog (Homo sapiens, UniProt P43351); type: functional, biochemical
T1 sequence (P43351 whole entry): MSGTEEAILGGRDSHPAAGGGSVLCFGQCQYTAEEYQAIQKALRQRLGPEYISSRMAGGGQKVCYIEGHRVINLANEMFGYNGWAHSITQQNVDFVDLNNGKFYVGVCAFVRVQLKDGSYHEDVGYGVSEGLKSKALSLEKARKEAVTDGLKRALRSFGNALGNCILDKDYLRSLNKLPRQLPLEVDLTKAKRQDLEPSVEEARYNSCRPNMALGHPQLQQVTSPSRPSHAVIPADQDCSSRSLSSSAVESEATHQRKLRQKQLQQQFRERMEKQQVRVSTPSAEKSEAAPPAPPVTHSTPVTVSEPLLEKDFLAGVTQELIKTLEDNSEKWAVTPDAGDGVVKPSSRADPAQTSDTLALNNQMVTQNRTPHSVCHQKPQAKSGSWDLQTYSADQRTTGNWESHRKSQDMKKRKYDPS

Protein S100-A4 = Protein S100-A4 (Homo sapiens, UniProt P26447); experiment: S100A4-myosin IIA binding inhibitor potency, dose response, biochemical, fluorescence polarization, cherry-picked hits (AID 687001); type: functional
Sequence of Protein S100-A4 (P26447 whole entry): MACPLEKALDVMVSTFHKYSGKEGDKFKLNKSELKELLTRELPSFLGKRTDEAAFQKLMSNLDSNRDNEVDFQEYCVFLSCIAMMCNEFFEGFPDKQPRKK

[15] = target: T2, DNA repair and recombination protein RAD54-like (Homo sapiens, UniProt Q92698); experiment: inhibitors of human RAD54 branch migration, confirmation, biochemical, fluorescence, cherry-picked samples, dose series (AID 651657); type: functional
T2 sequence (Q92698 whole entry): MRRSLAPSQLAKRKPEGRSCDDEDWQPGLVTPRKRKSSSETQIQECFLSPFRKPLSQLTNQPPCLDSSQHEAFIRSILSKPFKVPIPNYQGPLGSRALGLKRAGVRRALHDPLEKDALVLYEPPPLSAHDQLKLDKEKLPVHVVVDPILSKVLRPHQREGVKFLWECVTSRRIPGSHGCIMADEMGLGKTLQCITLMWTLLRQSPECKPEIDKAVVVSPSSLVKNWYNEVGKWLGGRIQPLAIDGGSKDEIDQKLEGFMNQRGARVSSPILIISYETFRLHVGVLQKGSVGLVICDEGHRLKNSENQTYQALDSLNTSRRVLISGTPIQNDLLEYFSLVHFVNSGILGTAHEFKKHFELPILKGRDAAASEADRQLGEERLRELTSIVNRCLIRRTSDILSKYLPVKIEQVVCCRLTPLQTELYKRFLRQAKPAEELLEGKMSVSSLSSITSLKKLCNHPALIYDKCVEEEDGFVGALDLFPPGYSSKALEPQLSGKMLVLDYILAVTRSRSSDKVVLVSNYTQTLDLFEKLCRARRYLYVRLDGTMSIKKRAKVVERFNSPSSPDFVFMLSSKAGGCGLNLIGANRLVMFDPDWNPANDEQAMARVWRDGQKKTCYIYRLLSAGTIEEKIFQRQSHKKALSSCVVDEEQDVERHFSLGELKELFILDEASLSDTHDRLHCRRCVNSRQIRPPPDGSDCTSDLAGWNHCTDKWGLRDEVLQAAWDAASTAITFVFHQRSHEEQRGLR

[16] = HEK293 cell viability, dose response, counter-screen for EBV LMP1 inhibitor project, dry powder, set 2 (AID 624374); type: functional
[17] = cytotoxicity in OVCAR8 ovarian cancer cells, dose response, PAX8 project, cell-based, plate reader, dry powder samples (AID 743197); type: functional; conditions: OVCAR-8
[18] = lymphoblastoid cell cytotoxicity, dose response, cytotoxicity control, plate reader, dry powder, set 2 (AID 624367); type: functional
[19] = A2780 ovarian cancer cell cytotoxicity, dose response, cytotoxicity control, plate reader, dry powder samples (AID 743046); type: functional, cell-based
[20] = target: Metabotropic glutamate receptor 3 (Rattus norvegicus, UniProt P31422); experiment: mGlu3 NAM potency via calcium readout, dose response, mGlu3 NAM project, TREx293 cells, Galpha15, calcium flux (AID 651840); type: functional
Sequence of Metabotropic glutamate receptor 3 (P31422 whole entry): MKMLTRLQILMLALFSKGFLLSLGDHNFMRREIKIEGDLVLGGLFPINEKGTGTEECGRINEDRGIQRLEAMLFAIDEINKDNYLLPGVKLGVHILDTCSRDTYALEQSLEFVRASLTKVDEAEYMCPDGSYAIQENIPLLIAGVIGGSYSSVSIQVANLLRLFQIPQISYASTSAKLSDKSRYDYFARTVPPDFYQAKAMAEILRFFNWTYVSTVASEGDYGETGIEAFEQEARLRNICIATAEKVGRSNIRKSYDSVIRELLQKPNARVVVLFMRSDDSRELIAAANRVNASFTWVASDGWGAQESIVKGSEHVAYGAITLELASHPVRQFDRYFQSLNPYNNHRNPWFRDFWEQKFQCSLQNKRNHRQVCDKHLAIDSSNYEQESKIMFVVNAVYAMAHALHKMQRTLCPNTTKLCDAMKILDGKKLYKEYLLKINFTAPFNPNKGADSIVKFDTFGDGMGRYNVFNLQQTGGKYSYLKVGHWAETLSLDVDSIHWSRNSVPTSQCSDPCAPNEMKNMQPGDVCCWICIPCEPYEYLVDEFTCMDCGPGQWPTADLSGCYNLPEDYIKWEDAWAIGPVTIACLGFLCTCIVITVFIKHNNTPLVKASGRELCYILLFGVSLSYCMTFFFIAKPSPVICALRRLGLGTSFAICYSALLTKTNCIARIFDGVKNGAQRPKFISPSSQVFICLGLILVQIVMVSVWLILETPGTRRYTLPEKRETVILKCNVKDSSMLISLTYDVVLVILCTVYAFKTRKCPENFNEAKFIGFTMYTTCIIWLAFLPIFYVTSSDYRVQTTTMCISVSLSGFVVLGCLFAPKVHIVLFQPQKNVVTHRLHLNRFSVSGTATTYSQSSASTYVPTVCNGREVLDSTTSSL

[21] = target: Endoplasmic reticulum aminopeptidase 1 (Homo sapiens, UniProt Q9NZ08); experiment: ERAP1 aminopeptidase inhibitors, dose response, biochemical, cherry-pick, set 2, plate reader (AID 743314)
Sequence of Endoplasmic reticulum aminopeptidase 1 (Q9NZ08 whole entry): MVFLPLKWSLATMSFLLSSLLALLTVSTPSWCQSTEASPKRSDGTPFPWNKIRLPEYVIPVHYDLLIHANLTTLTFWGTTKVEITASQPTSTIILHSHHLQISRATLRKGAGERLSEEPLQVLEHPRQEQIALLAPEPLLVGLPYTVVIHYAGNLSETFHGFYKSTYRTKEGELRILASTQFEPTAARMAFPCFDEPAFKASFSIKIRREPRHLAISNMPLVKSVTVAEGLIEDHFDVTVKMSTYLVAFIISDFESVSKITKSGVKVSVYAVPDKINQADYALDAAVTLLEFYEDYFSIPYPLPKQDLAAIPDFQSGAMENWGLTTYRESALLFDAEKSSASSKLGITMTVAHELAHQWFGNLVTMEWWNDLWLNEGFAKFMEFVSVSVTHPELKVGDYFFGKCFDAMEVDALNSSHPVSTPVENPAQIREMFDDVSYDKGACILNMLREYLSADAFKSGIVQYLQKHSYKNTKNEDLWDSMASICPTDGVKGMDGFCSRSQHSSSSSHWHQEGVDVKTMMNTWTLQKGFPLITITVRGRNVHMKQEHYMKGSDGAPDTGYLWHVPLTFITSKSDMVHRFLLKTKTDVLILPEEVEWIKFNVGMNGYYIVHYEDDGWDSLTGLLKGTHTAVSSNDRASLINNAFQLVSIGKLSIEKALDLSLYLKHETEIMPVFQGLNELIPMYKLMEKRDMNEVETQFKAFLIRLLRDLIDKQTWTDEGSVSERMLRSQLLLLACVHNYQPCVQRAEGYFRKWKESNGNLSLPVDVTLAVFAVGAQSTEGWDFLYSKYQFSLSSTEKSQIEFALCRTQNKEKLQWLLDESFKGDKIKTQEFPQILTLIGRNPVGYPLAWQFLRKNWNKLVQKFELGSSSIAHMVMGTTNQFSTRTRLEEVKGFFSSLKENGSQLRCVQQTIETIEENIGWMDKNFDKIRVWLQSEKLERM

[22] = Late stage assay provider results from the probe development effort to identify selective inhibitors of heat shock protein 90 (HSP90): Absorbance-based cell proliferation assay in MCF7 cells.; type: functional
[23] = Late stage assay provider results from the probe development effort to identify selective inhibitors of heat shock protein 90 (HSP90): Absorbance-based cell proliferation assay in SKBR3 cells.; type: functional; conditions: SK-BR-3
[24] = T. cruzi growth inhibition in host cells, dose response, cell-based, plate reader, dry powder, set 2 (AID 652275); type: functional
[25] = HepG2 cell cytotoxicity, dose response, cytotoxicity control, cherry-picks, set 5 (AID 1053118); type: functional, cell-based
[26] = A549 cell cytotoxicity, dose response, cytotoxicity control, cherry-picks, 26 µM top dose (AID 1053119); type: functional, cell-based
[27] = HEK293 cell cytotoxicity, dose response, cytotoxicity control, cherry-picks, set 5 (AID 1053117); type: functional, cell-based
[28] = Late stage assay provider results from the probe development effort to identify inhibitors of Protein Arginine Deaminase 4 (PAD4): cell-based absorbance-based assay to assess cytotoxicity of test compounds.; type: functional

For `CCCn1c(C)cc(C(=O)CN2C(=O)c3ccccc3S2(=O)=O)c1C`, the AC50 [1] was 2.98 µM (active), the AC50 (HEK293) was 0.211 µM (active) and the AC50 [2] was 9.79 µM (active). For the same molecule, the AC50 [3] was > 100 µM (inactive), the AC50 (Paired box protein Pax-8) was 3.55 µM (active) and the AC50 [4] was 26.8 µM (active). For the same molecule, the AC50 [5] was 55.7 µM (active), the AC50 [6] was 77.7 µM (active) and the AC50 [7] was 81.2 µM (active). For the same molecule, the AC50 [8] was 82.5 µM (active), the AC50 [9] was 3.24 µM (active) and the AC50 [10] was 0.798 µM (active). For the same molecule, the AC50 [11] was 0.69 µM (active), the AC50 [12] was > 52 µM (inactive) and the AC50 [13] was 4.42 µM (active).
In the case of `Cc1cccc(-c2cc(N3CCCN(C)CC3)n3nccc3n2)c1`, the AC50 [14] is reported as 2.45 µM (active), the AC50 (Protein S100-A4) is reported as 7.12 µM (active) and the AC50 [15] is reported as 24 µM (active).
With `COc1cccc(C#Cc2ccc([C@@H]3[C@H](C#N)N(C(=O)c4ccccn4)[C@H]3CO)cc2)c1` the AbsAC35 [16] was 296.86 µM, the AC50 [3] was > 70 µM (inactive) and the AC50 (Paired box protein Pax-8) was 11.9 µM (active). The AC50 [5] was 35.1 µM (active), the AC50 [17] was 63.7 µM (active) and the AbsAC35 [18] was 55.61 µM. The AC50 [9] was > 70 µM (inactive), the AC50 [19] was 12.7 µM (active) and the AC50 [13] was > 70 µM (inactive).
Molecule `COc1ccc(C#Cc2ccc(C(=O)N3CCCC(C)(O)C3)cc2)cc1` (stereo unspecified) has an IC50 [20] of 0.525 µM.
For `CCC(=O)N1[C@@H]2c3ccc(/C=C/c4ccccc4)c(=O)n3C[C@H]1[C@H](CO)[C@H]2C(=O)N(C)C`, the AC50 [21] was 9.44 µM (active).
With `COC(=O)c1cccc(COc2ccc3cc(Br)c(=O)oc3c2)c1` the IC50 [22] was > 100 µM (inactive) and the IC50 [23] was > 100 µM (inactive).
For `CC(C)N1CC2(CN(Cc3ccc(-c4ccccc4)cc3)C2)Oc2c(NC(=O)c3ccncc3)cccc2C1=O`, the AC50 [24] was 0.00131 µM (active).
For `C[C@H](CO)N1C[C@H](C)[C@@H](CN(C)C(=O)Nc2cccc3ccccc23)Oc2c(NC(=O)Nc3ccc(C(F)(F)F)cc3)cccc2C1=O`, the AC50 [25] was 34.4 µM (active), the AC50 [26] was > 52 µM (inactive) and the AC50 [27] was > 52 µM (inactive).
In the case of `NC1=CC(=O)c2ccc(-c3cccc(C(=O)O)n3)nc2C1=O`, the CC50 [28] is reported as 26.5 µM (inactive).
